According to PubChem BioAssay (NCI):
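Step 1: Grow cells in 96-well plates. Step 2: Expose to compound for 48 hours at 5 concentrations. Step 3: Interpolate endpoints linearly; if unreached, use highest concentration. At the GI50, growth is halved. TGI: total growth inhibition.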

Legend:
Test in all cases: DTP human tumour cell line panel, 48 h
SF-268 CNS = tested on: SF-268 CNS
SNB-19 CNS = tested on: SNB-19 CNS
SK-OV-3 ovarian = tested on: SK-OV-3 ovarian
EKVX NSCLC = tested on: EKVX NSCLC
MDA-MB-435 = tested on: MDA-MB-435
SNB-75 CNS = tested on: SNB-75 CNS
TK-10 renal = tested on: TK-10 renal
ACHN renal = tested on: ACHN renal
OVCAR-4 ovarian = tested on: OVCAR-4 ovarian
SK-MEL-5 melanoma = tested on: SK-MEL-5 melanoma
SW-620 colon = tested on: SW-620 colon
COLO 205 colon = tested on: COLO 205 colon
SF-539 CNS = tested on: SF-539 CNS
NCI-H460 lung = tested on: NCI-H460 lung
U251 CNS = tested on: U251 CNS
HT29 colon = tested on: HT29 colon
HOP-92 NSCLC = tested on: HOP-92 NSCLC
HCT-116 colon = tested on: HCT-116 colon
RPMI-8226 leukemia = tested on: RPMI-8226 leukemia
IGROV1 ovarian = tested on: IGROV1 ovarian
KM12 colon = tested on: KM12 colon
786-0 renal = tested on: 786-0 renal
CCRF-CEM leukemia = tested on: CCRF-CEM leukemia
MCF7 breast = tested on: MCF7 breast
T-47D breast = tested on: T-47D breast
HCT-15 colon = tested on: HCT-15 colon

## N#Cc1c(-c2ccccc2)n([O-])c2ccccc2[n+]1=O
SF-268 CNS
  GI50: 24.8 µM
  TGI: 63.9 µM
SNB-19 CNS
  GI50: 67.1 µM
  TGI: > 100 µM
SK-OV-3 ovarian
  GI50: 51.7 µM
  TGI: > 100 µM
EKVX NSCLC
  GI50: 28.2 µM
  TGI: 58 µM
MDA-MB-435
  GI50: 19.7 µM
  TGI: 36.3 µM
SNB-75 CNS
  GI50: 41.1 µM
  TGI: > 100 µM
TK-10 renal
  GI50: 29.4 µM
  TGI: 68.4 µM
ACHN renal
  GI50: 19.9 µM
  TGI: 37.5 µM
OVCAR-4 ovarian
  GI50: 28.8 µM
  TGI: 81.8 µM
SK-MEL-5 melanoma
  GI50: 20.1 µM
  TGI: 38.5 µM
SW-620 colon
  GI50: 35.3 µM
  TGI: > 100 µM
COLO 205 colon
  GI50: 35.5 µM
  TGI: > 100 µM
SF-539 CNS
  GI50: 32.1 µM
  TGI: 60.8 µM
NCI-H460 lung
  GI50: 20.7 µM
  TGI: 45.9 µM
U251 CNS
  GI50: 24.7 µM
  TGI: 60.7 µM
HT29 colon
  GI50: 38.8 µM
  TGI: > 100 µM
HOP-92 NSCLC
  GI50: 21.8 µM
  TGI: 45.4 µM
HCT-116 colon
  GI50: 19.5 µM
  TGI: 34.8 µM
RPMI-8226 leukemia
  GI50: 21.1 µM
  TGI: 42.2 µM
IGROV1 ovarian
  GI50: 36.9 µM
  TGI: > 100 µM
KM12 colon
  GI50: 16.2 µM
  TGI: 32.2 µM
786-0 renal
  GI50: 35.7 µM
  TGI: > 100 µM
CCRF-CEM leukemia
  GI50: 22.2 µM
  TGI: 46.1 µM
MCF7 breast
  GI50: 33.2 µM
  TGI: > 100 µM
T-47D breast
  GI50: 30.1 µM
  TGI: 83.7 µM
HCT-15 colon
  GI50: 21.4 µM
